Test results from patent US11320350B2, “Method for agglutinating erythrocytes, method for separating erythrocytes, and hemagglutination reagent” (DENKA SEIKEN CO., LTD., priority 2016, dated 2022).

Test system: erythrocytes in a whole blood sample
Experiment: hemagglutination evaluation test: whole blood sample added to hemagglutination reagent, rate of agglutination of erythrocytes visually evaluated
Type: cell-based
Design: key to Rate of agglutination: +++: Erythrocytes were instantaneously agglutinated into a sufficient size and the agglutinated erythrocytes were precipitated.; ++: Erythrocytes started to agglutinate after leaving to stand for a few seconds, and agglutinated erythrocytes were gradually precipitated.; +: Erythrocytes were agglutinated, but the agglutinates were very small and the agglutination was incomplete.; ±: Only very few erythrocytes were agglutinated.; −: Erythrocytes were hemolyzed without being agglutinated
Details: citric acid 100 mM in physiologic saline, pH3.0
Method: To 71 mL of distilled water, 10 mL of 10 w/v % sodium taurodeoxycholate hydrate (TDOC), 10 mL of 1 M citric acid, and 9 mL of 10 w/v % sodium chloride were added to prepare a solution containing 100 mM citric acid, 1% TDOC, and 0.9% sodium chloride as final concentrations (hemagglutination reagent). A solution was also prepared in the similar manner except that TDOC and/or sodium chloride were not added (hemagglutination reagent), and effects of the presence and absence of the cholic acid-based surfactant and the salt and the pH range on agglutination of erythrocytes were compared.
(§1) After adding 60 μL of a whole blood sample to 400 μL of the hemagglutination reagent, the rate of agglutination of erythrocytes was visually evaluated. The rate of agglutination was evaluated as +++, ++, +, or ± in order of rapidity based on the criteria described below. Hemolysis without agglutination was evaluated as −.
The pH of the hemagglutination reagent was measured using a desktop pH meter (HORIBA) (similarly in the following Examples and Comparative Examples).
Various cholic acid-based surfactants (1% by weight) and citric acid (100 mM) were added to a physiologic saline to prepare hemagglutination reagents (pH3.0) and their abilities to agglutinate erythrocytes were compared.
as §1, with “was” for “was visually”, “−. The following criteria were the same as those in Examples 1 to 4 and Comparative Examples 1-1 to 4-2.” for “−.”
Sodium taurodeoxycholate hydrate (TDOC) and citric acid (100 mM) were added to a physiologic saline to prepare hemagglutination reagents (pH3.0), and their abilities to agglutinate erythrocytes were compared in the concentration range of TDOC as shown in the table below.
as §1, with “was” for “was visually”, “criteria” for “criteria described”, “−. The following criteria were the same as those in Examples 1 to 7 and Comparative Examples 1-1 to 4-2.” for “−.”

C[C@H](CCC(=O)NCCS(=O)(=O)[O-])[C@H]1CC[C@H]2[C@@H]3CC[C@@H]4C[C@H](O)CC[C@]4(C)[C@H]3C[C@H](O)[C@]12C.O.[Na+] [TDOC, sodium taurodeoxycholate hydrate] was tested, and the Rate of agglutination (Concentration of TDOC 0.1 wt %) was “+++”, the Rate of agglutination (Concentration of TDOC 0.5 wt %) was “+++” and the Rate of agglutination (Concentration of TDOC 1.0 wt %) was “+++”. The Rate of agglutination (Concentration of TDOC 6.0 wt %) was “+++” and the “effect on hemagglutination (compared among cholic acid-based surfactants)” value (surfactant 1% by weight) was “most significant”.
